Reference: US5886046A, “Dicarbonyl-containing compounds” (priority 1996, dated 1999)

How the values were obtained:
HIV-1 protease = HIV-1 protease (Human immunodeficiency virus type 1 group M subtype B, UniProt P12497); assay: biochemical
From the text: (§1) The biological activity compound (4) was compared with the known enzyme inhibitor (1) N-(2(R)-Hydroxy-1(S)-indonyl)-5(S)-[tert-butyloxycarbonyl)amino]-4(S)-hydroxy-6-(4-hydroxyphenyl)-2-(R) -[(4-hydroxyphenyl)methyl]hexanamide. See, e.g., Thompson, W. J. et al., J. Med. Chem. 1992, 35, 1685) according to methods recited in the Thompson, supra. and Heimbach, J. C. et al., Biochem. Biophys. Res. Commun. 1989, 164, 955-960.

HIV-1 = assay: CIC95 (cell culture assay of Thompson, not further described); type: cell-based
From the text: as §1

## CC(=O)C(=O)COc1ccc(C[C@H](C[C@H](O)[C@H](Cc2ccccc2)NC(=O)OC(C)(C)C)C(=O)N[C@H]2c3ccccc3C[C@H]2O)cc1 [Compound 4]
HIV-1 protease
  IC50: 75 pM
HIV-1; Human immunodeficiency virus 1
  IC95: < 6000 pM
HIV-1; ratio of CIC95 to IC50
  CIC95/IC50: < 80
